Reference: article PMC5777145 (Analytical chemistry, 2017)
Entries after “also recorded” stand apart in the source; their conditions may differ.

Experiments:
[1] = rodent TD50, Comet assay; cited from earlier work
DNA = conditions: cited from earlier work
salmon testes DNA [2] = conditions: for ECL intensity vs enzyme reaction time, DNA oxidation (8-oxodG): 3 mM 4ABP, AF or anisidine, 5 mM NA, pH 7.4 + NADPH regenerating system + Cu2+, different cyt P450 sources, ECL at 0.7 V
cyt P450s = assay: Mass spectrometry of metabolites after incubation with cyt P450s, NADPH and Cu2+; format: in vitro ADME; conditions: positive-ion electrospray MS
salmon testes DNA [3] = test system: salmon testes DNA
[4] = ref International Agency for Research on Cancer (IARC); cited from earlier work

SMILES | toxicity by conventional bioassays [1] | major DNA adduct found (DNA) | relative turnover rate R, DNA oxidation (level in words) (salmon testes DNA [2]) | ECL intensity vs enzyme reaction time, DNA oxidation (8-oxodG) (salmon testes DNA [2]) | influence of cyt P450 source on relative DNA oxidation rate (salmon testes DNA [2]; human, rat (enzyme sources), salmon (DNA), pH 7.4) | order of relative DNA oxidation rates (salmon testes DNA [2]; pH 7.4) | metabolites found (cyt P450s) | order of relative DNA adduction rate (salmon testes DNA [3]) | relative turnover rate R, DNA adduction (level in words) (salmon testes DNA [3]; array R values) | influence of cyt P450 source on relative DNA adduction rate (salmon testes DNA [3]; human, rat (enzyme sources), salmon (DNA)) | carcinogen classification [4]
Nc1ccc2ccccc2c1 [NA, 2-naphthylamine] | relative lower levels of toxicity | N-(2′-deoxyguanosin-8-yl)-2-naphthylamine | smaller R values | increases in ECL with reaction time | Supersome 1A2 had the largest relative DNA oxidation and adduction rates | 4-ABP > AF ≈ anisidine > NA | hydronitroxide radical; also recorded: nitroso naphthalene | 4-ABP > AF > anisidine > NA | smaller R values | Supersome 1A2 had the largest relative DNA oxidation and adduction rates | 
COc1ccccc1N [anisidine, o-anisidine] |  | N-(2′-deoxyguanosin-8-yl)-2-methoxyaniline |  | increases in ECL with reaction time |  |  | o-aminophenol |  |  |  | group 2B carcinogen
Nc1ccc(-c2ccccc2)cc1 [4ABP, 4-Aminobiphenyl] |  | N-(2′-deoxyguanosin-8-yl)-4-aminobiphenyl |  | increase in ECL intensity with reaction time |  |  |  |  |  |  | group I carcinogen
Nc1ccc2c(c1)Cc1ccccc1-2 [AF, 2-aminofluorene] |  |  |  | increases in ECL with reaction time |  |  |  |  |  |  | 
